Source: PubChem BioAssay (NCI)
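48-hour exposure; five concentrations; linearly interpolated endpoints. TGI: concentration producing complete growth inhibition.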

Legend:
Experiment in all cases: NCI-60 cell line screen, 48 h
786-0 renal = system: 786-0 renal
A549 NSCLC = system: A549 NSCLC
ACHN renal = system: ACHN renal
COLO 205 colon = system: COLO 205 colon
HCC-2998 colon = system: HCC-2998 colon
HCT-15 colon = system: HCT-15 colon
HOP-62 NSCLC = system: HOP-62 NSCLC
KM12 colon = system: KM12 colon
MALME-3M melanoma = system: MALME-3M melanoma
MCF7 breast = system: MCF7 breast
NCI-H226 lung = system: NCI-H226 lung
NCI/ADR-RES ovarian = system: NCI/ADR-RES ovarian
OVCAR-4 ovarian = system: OVCAR-4 ovarian
SF-295 CNS = system: SF-295 CNS
SK-MEL-2 melanoma = system: SK-MEL-2 melanoma
SNB-75 CNS = system: SNB-75 CNS
T-47D breast = system: T-47D breast
TK-10 renal = system: TK-10 renal
U251 CNS = system: U251 CNS
UACC-62 melanoma = system: UACC-62 melanoma

Structure (SMILES) | TGI (786-0 renal) [µM] | TGI (A549 NSCLC) [µM] | TGI (ACHN renal) [µM] | TGI (COLO 205 colon) [µM] | TGI (HCC-2998 colon) [µM] | TGI (HCT-15 colon) [µM] | TGI (HOP-62 NSCLC) [µM] | TGI (KM12 colon) [µM] | TGI (MALME-3M melanoma) [µM] | TGI (MCF7 breast) [µM] | TGI (NCI-H226 lung) [µM] | TGI (NCI/ADR-RES ovarian) [µM] | TGI (OVCAR-4 ovarian) [µM] | TGI (SF-295 CNS) [µM] | TGI (SK-MEL-2 melanoma) [µM] | TGI (SNB-75 CNS) [µM] | TGI (T-47D breast) [µM] | TGI (TK-10 renal) [µM] | TGI (U251 CNS) [µM] | TGI (UACC-62 melanoma) [µM]
C=C1c2nc3ccccc3n2C=C(c2ccc(OC)cc2)N1c1ccc(OCCN2CCCCC2)cc1 | > 52.5 | > 84.6 | > 81.7 | 36.4 | 33.6 | > 100 | > 100 | > 100 | > 100 | > 100 | > 96.7 | > 86.4 | > 100 | > 100 | > 51.6 | > 100 | > 100 | 41.8 | > 91.3 | > 100
Cc1cccc(Nc2nc3ccccc3nc2NS(=O)(=O)c2ccc(N)cc2)c1 | > 100 | > 100 | > 100 | > 100 | 67.6 | > 100 | > 100 | > 100 | > 100 | > 100 | > 100 | > 100 | 42.6 | > 100 | 81.5 | > 100 | > 100 | > 100 | 53.8 | > 100
CC(CN1NC12CCCC2)N1NC12CCCC2 (stereo not given) | > 100 | > 100 | > 100 | > 100 | > 100 | > 100 | > 100 | > 100 | > 100 | > 100 | > 100 | > 100 | > 100 | > 100 | > 100 | > 100 | > 100 | > 100 | > 100 | > 100
Clc1ccc(OCC2NC3CCC2CC3)cn1 (stereo not given) | 36.7 | > 100 | > 100 | 32.4 | 32.5 | 45.5 | 67.1 | 35.3 | 39.6 | 34.8 | > 100 | > 100 | > 100 | 68.8 | 33.4 | > 100 | > 100 | > 100 | 30.7 | 39.3
O=C1c2ccccc2C(=O)N1/N=C1/SC(=Nc2ccccc2)C(=Nc2ccccc2)N1c1ccccc1 | > 41.7 | > 100 | > 100 | > 100 | > 100 | > 100 | > 100 | > 100 | > 84.7 | > 100 | > 100 | > 100 | > 100 | > 100 | > 100 | > 54.1 | > 100 | > 100 | > 100 | > 100
O=C(CCC(=O)c1ccsc1)c1ccsc1 | > 100 | > 100 | > 100 | > 100 | > 100 | > 100 | > 100 | > 100 | > 100 | > 100 | > 100 | > 100 | > 100 | > 100 | > 100 | > 100 | > 100 | > 100 | > 100 | > 100
O=C1c2ccccc2-c2nnc3c(c21)Cc1ccccc1C3 | > 10 | > 10 | > 10 | > 10 | > 10 | > 10 | > 10 | > 10 | > 10 | > 10 | > 10 | > 10 | > 10 | > 10 | > 10 | > 10 | > 10 | > 10 | > 10 | > 10
C=CCOC(=O)Cn1cnc2c(N)ncnc21 | > 100 | > 100 | > 100 | > 100 | > 100 | > 100 | > 100 | > 100 | > 100 | > 100 | > 100 | > 100 | > 100 | > 100 | > 100 | > 100 | > 100 | > 100 | > 100 | > 100
CCCc1nnc2sc(COc3ccc(OCc4nn5c(CCC)nnc5s4)c(Cl)c3)nn12 | > 100 | > 100 | 59.1 | > 100 | 64.1 | > 100 | > 100 | > 100 | > 100 | 55.3 | > 100 | > 100 | 74.6 | > 100 | > 100 | 73.7 | 39.6 | 93.5 | > 100 | 59.4
COc1cc([C@@H]2c3cc4c(cc3[C@H](OC3OC5COC(c6ccco6)OC5C(O)C3O)C3COC(=O)[C@@H]32)OCO4)cc(OC)c1OC (stereo not given in full) | > 34.5 | > 100 | > 59.3 | > 31.3 | > 100 | > 100 | > 100 | > 100 | > 100 | > 53.6 | > 100 | > 80.1 | > 100 | > 100 | > 69.8 | > 100 | > 100 | > 100 | > 100 | > 100
CC1=C(O)C(=O)C=C2C1=CC=C1[C@@]2(C)CC[C@@]2(C)C3C[C@@H](C)C(=O)[C@@H](O)[C@]3(C)CC[C@]12C (stereo not given in full) | 2.36 | 28.5 | 3.07 | 3.05 | 9.65 | 3.73 | 11.6 | 19.6 | 3.97 | 11 | 11.1 | 9.55 | 11 | 13.4 | 9.85 | 17.3 | 3.44 | 3.82 | 2.88 | 3.28
O=C1C2C3C4C1C1C2[C@H](OCc2ccccc2)C3C1[C@H]4OCc1ccccc1 (stereo not given in full) | > 100 | > 100 | > 100 | 82.5 | > 100 | 57.9 | > 100 | > 100 | > 100 | > 100 | > 100 | 54.8 | > 100 | > 100 | > 100 | > 100 | > 100 | > 100 | > 100 | > 100
N#Cc1cc2c(cc1C#N)SCCSCCCSCCS2 | 19 | > 100 | 19.4 | > 100 | > 100 | 34.9 | 4.95 | > 100 | > 65.1 | > 100 | > 84.8 | > 100 | > 100 | 18.3 | 42.8 | 18.2 | > 80.8 | 14.3 | 28.2 | 27.6
CCCCNC(=O)OCCN=c1c2ccccc2ccc2ccccc12 | > 100 | > 100 | > 100 | > 100 | > 100 | > 100 | > 100 | > 100 | > 100 | > 100 | > 100 | > 100 | > 100 | > 100 | > 100 | > 100 | > 100 | > 100 | > 100 | > 100
CC(C)(C)N(Cc1ccccc1)C(=O)/C=C\S(=O)c1ccccc1 (stereo not given) | 4.87 | 25.4 | 15.9 | 12.8 | 15.5 | 18 | 21.2 | 18.1 | 12.2 | 16.4 | 16.4 | 13.7 | 9.25 | 27.3 | 8.79 | 23.1 | 22.2 | 18.5 | 15.5 | 15.2
Cc1ccc(S(=O)(=O)NNC(=O)Nc2cccc(C(F)(F)F)c2)cc1 | > 100 | > 100 | > 100 | > 100 | > 100 | > 100 | > 100 | > 100 | > 100 | > 100 | > 100 | > 100 | > 100 | > 100 | > 100 | 53.7 | > 100 | > 100 | > 100 | > 100
COC1=C(C(c2cc(OC)c(OC)c(OC)c2)c2cc3c(cc2OC)OCO3)C(=O)OC1 (stereo not given) | 65.4 | > 67.1 | > 79.3 | 53.2 | > 100 | > 100 | > 84 | 40.9 | > 73.2 | > 82.3 | 79.7 | 26.2 | > 95.1 | 51.4 | > 100 | > 64.3 | > 100 | > 73.2 | > 96.7 | > 87
C#CCOC(=O)C(N)CC(N)=O (stereo not given) | > 100 | > 100 | > 100 | > 100 | > 100 | > 100 | > 100 | > 100 | > 100 | > 100 | > 100 | > 100 | > 100 | > 100 | > 100 | > 100 | > 100 | > 100 | > 100 | > 100
CN(Cc1cnc2nc(N)nc(N)c2n1)c1ccc(C(=O)NCCCS(=O)(=O)O)cc1 | > 100 | > 100 | > 100 | > 100 | > 100 | > 100 | > 100 | > 100 | > 100 | > 100 | > 100 | > 100 | > 100 | > 100 | > 100 | > 100 | > 100 | > 100 | > 100 | > 100
CC(C)=CCC[C@@H](C)[C@H]1CC[C@@]2(C)[C@@H]3CC[C@H]4C(C)(C)[C@@H](O)CC[C@@]45C[C@@]35CC[C@]12C | > 61.6 | 48.1 | > 73.1 | > 100 | > 31.6 | > 100 | 59.6 | > 100 | > 100 | > 100 | > 74.5 | 62.1 | > 100 | > 78.7 | > 100 | > 100 | > 100 | > 100 | 31.1 | > 100
CCCN(CCC)C(=S)Sc1nc(C)nc(N2CCN(c3nc(C)nc(SC(=S)N(CCC)CCC)c3[N+](=O)[O-])CC2)c1[N+](=O)[O-] | > 53 | > 84.5 | 40.9 | 19 | 43.6 | 32.1 | > 85 | 33.4 | 45.6 | 11.9 | > 62.2 | > 100 | 76.5 | > 58.1 | 30.9 | > 100 | 39.9 | 41.9 | 16.7 | 60.3
NS(=O)(=O)c1ccc(NC(=S)NC(=O)Nc2ccc(Cl)c(Cl)c2)cc1 | 31.1 | 31.7 | 32.2 | 32.3 | 30.9 | 29.8 | 36.8 | 28.3 | 33.5 | 30.2 | 43.8 | 44.6 | 44.1 | 30.8 | 34.4 | 28.8 | 33.3 | 81.5 | 37.8 | 28.7
CC(C#N)(c1ccccc1)N(CCc1ccccc1)C(=O)Oc1ccccc1 (stereo not given) | > 100 | > 100 | > 100 | > 100 | > 100 | > 100 | > 100 | > 100 | > 100 | > 100 | > 100 | > 100 | > 100 | > 100 | > 100 | 81.6 | > 100 | > 100 | > 100 | > 100
